{
  "source": "patent US10590116B2",
  "about": "“3-indolyl furanoids as inhibitors of matrix metalloproteinase-9 for prevention of gastric ulcer and other inflammatory diseases” (Council of Scientific & Industrial Research, priority 2017, dated 2020)",
  "key": {"MMP-9": {"target": "T1, MMP-9 (Mus musculus, UniProt P41245)", "T1 construct": "from tissue; host or cells: mouse stomach (gastric tissue) PBS / Triton X-100 extracts", "T1 sequence (P41245 108-730)": "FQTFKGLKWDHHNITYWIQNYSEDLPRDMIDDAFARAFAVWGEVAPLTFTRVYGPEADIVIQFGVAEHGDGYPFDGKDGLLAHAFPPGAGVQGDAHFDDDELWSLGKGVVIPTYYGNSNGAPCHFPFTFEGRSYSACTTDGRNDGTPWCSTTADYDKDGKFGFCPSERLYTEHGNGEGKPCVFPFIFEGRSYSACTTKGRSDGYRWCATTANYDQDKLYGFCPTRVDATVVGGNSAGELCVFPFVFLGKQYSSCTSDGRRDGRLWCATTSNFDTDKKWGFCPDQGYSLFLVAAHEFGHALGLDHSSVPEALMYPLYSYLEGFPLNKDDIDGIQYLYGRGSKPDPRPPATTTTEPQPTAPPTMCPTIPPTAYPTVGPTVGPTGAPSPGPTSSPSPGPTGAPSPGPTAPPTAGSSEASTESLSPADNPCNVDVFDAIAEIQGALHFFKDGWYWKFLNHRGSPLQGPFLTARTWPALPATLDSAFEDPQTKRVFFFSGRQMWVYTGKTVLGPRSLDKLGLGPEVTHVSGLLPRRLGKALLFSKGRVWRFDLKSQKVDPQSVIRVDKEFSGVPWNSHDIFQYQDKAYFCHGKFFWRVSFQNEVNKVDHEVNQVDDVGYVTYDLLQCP", "experiment": "Gelatin zymography of gastric tissue extract, MMP-9", "type": "in vivo, mice", "conditions": "pretreatment before indomethacin", "method": "(§1) The whole stomach (including fundic, body and pyloric parts) was washed with saline and used for extraction. Stomach except connective tissue layer (named as gastric tissue) were suspended in 10 mM phosphate buffer saline (PBS) containing protease inhibitors, minced and incubated for 10 min at 4° C. After centrifugation at 12,000 g for 15 min, the supernatant was collected as PBS extracts. The pellet was then extracted in lysis buffer (10 mM Tris-HCl pH 8.0, 150 mM NaCl, 1% Triton X-100 and protease inhibitors) and centrifuged at 12,000 g for 15 min to obtain TX extracts. Both PBS and TX extracts were preserved at −70° C. and used in future studies. Proteins were estimated either by Lowry method or by Bradford assay.\n(§2) For the analysis of MMP-9 activity, tissue extracts were electrophoresed in 8% SDS-PAGE containing 1 mg/mL gelatin under nonreducing conditions. Equal amounts of tissue extracts (70 μg of total protein) were loaded in all the lanes. […] Quantification of zymographic bands was performed using densitometry linked to proper software (Lab Image, Kapelan Gmbh, Leipzig, Germany). […]\n(§3) Tissue extracts were electrophoresed in SDS-PAGE containing gelatin under nonreducing conditions. […] Gelatinolytic activity came as negative staining and was quantified by Lab Image software."}, "MMP-2": {"target": "T2, MMP-2 (Mus musculus, UniProt P33434)", "T2 construct": "Tissue extracts were electrophoresed in SDS-PAGE containing gelatin under nonreducing conditions; from tissue; host or cells: mouse stomach (gastric tissue) PBS / Triton X-100 extracts", "T2 sequence (P33434 110-662)": "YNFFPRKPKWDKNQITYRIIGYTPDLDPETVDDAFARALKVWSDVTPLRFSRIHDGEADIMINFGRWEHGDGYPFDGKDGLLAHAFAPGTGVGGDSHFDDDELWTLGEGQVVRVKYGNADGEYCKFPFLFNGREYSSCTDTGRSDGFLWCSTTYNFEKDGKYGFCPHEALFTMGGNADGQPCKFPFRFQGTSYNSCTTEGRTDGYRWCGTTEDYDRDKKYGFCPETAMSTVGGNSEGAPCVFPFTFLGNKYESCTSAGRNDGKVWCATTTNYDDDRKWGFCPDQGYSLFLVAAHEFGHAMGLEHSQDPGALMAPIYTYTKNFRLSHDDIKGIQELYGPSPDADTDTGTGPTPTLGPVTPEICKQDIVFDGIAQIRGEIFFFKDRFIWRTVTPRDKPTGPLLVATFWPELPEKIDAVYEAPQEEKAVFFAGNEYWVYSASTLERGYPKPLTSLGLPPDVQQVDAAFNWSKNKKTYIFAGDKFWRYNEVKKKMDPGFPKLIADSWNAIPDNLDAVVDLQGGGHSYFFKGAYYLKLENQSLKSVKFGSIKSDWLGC", "experiment": "Gelatin zymography of gastric tissue extract, MMP-2", "type": "in vivo, mice", "conditions": "pretreatment before indomethacin", "method": "as §1, §2, §3"}},
  "data": [
    {"molecule": "COc1cccc2[nH]cc(-c3cc(-c4ccccc4)oc3-c3ccccc3)c12", "note": "[compound 5, 4-methoxy-3-(2,5-diphenylfuran-3-yl)-1H-indole]", "values": [
      {"measurement": "MMP-9 activity in gastric tissue extract", "setting": "MMP-9", "result": "inhibits MMP-9 activity in gastric mucosa"},
      {"measurement": "MMP-9 activity in gastric tissue extract", "setting": "MMP-9; listed as Compound 5", "result": "inhibited MMP-9 activity very significantly"},
      {"measurement": "MMP-2 activity in gastric tissue extract", "setting": "MMP-2", "result": "remained unaltered"}
    ]}
  ]
}
